Test results: ChEMBL document CHEMBL4219043, “Beyond the Rule of 5: Lessons Learned from AbbVie's Drugs and Compound Collection” (J Med Chem, 2018)
pEC50: −log10 of the molar value. Values after ≈ are worked out from the molar mass of the structure shown.

How the values were obtained:
Hepatitis C virus [1] = test: Antiviral activity against HCV genotype 1a H77 infected in human HuH7 replicon cells after 3 days in absence of human plasma by luciferase reporter gene assay; assay type: functional, organism-based, Hepacivirus hominis; settings: genotype 1a H77, Huh-7, 72 h
Hepatitis C virus [2] = test: Antiviral activity against HCV genotype 1a H77 infected in human HuH7 replicon cells after 3 days in presence of 40% human plasma by luciferase reporter gene assay; assay type: functional, organism-based, Hepacivirus hominis; settings: genotype 1a H77, Huh-7, 72 h
Hepatitis C virus [3] = test: Antiviral activity against HCV genotype 1b Con1 infected in human HuH7 replicon cells after 3 days in absence of human plasma by luciferase reporter gene assay; assay type: functional, organism-based, Hepacivirus hominis; settings: isolate Con1, Huh-7, 72 h
Hepatitis C virus [4] = test: Antiviral activity against HCV genotype 1b Con1 infected in human HuH7 replicon cells after 3 days in presence of 40% human plasma by luciferase reporter gene assay; assay type: functional, organism-based, Hepacivirus hominis; settings: isolate Con1, Huh-7, 72 h
Hepatitis C virus [5] = test: Antiviral activity against HCV genotype 3a infected in human HuH7 replicon cells after 3 days in absence of human plasma by luciferase reporter gene assay; assay type: functional, organism-based, Hepacivirus hominis; settings: Huh-7, 72 h
Hepatitis C virus [6] = test: Antiviral activity against HCV genotype 1a H77 harboring NS3 R155K mutant infected in human HuH7 replicon cells after 3 days by luciferase reporter gene assay; assay type: functional, organism-based, Hepacivirus hominis; settings: genotype 1a H77, Huh-7, 72 h
Hepatitis C virus [7] = test: Antiviral activity against HCV genotype 1a H77 harboring NS3 D168V mutant infected in human HuH7 replicon cells after 3 days by luciferase reporter gene assay; assay type: functional, organism-based, Hepacivirus hominis; settings: genotype 1a H77, Huh-7, 72 h
Hepatitis C virus [8] = test: Antiviral activity against HCV genotype 1b Con1 harboring NS3 R155K mutant infected in human HuH7 replicon cells after 3 days by luciferase reporter gene assay; assay type: functional, organism-based, Hepacivirus hominis; settings: isolate Con1, Huh-7, 72 h
Hepatitis C virus [9] = test: Antiviral activity against HCV genotype 1b Con1 harboring NS3 D168V mutant infected in human HuH7 replicon cells after 3 days by luciferase reporter gene assay; assay type: functional, organism-based, Hepacivirus hominis; settings: isolate Con1, Huh-7, 72 h
Hepatitis C virus [10] = test: Resistance index, ratio of EC50 for HCV genotype 1a H77 harboring NS3 R155K mutant infected in human HuH7 replicon cells to EC50 for HCV genotype 1a H77 harboring wild type NS3 infected in human HuH7 replicon cells; assay type: functional, Hepacivirus hominis
Hepatitis C virus [11] = test: Resistance index, ratio of EC50 for HCV genotype 1a H77 harboring NS3 D168V mutant infected in human HuH7 replicon cells to EC50 for HCV genotype 1a H77 harboring wild type NS3 infected in human HuH7 replicon cells; assay type: functional, Hepacivirus hominis
Hepatitis C virus [12] = test: Resistance index, ratio of EC50 for HCV genotype 1b Con1 harboring NS3 R155K mutant infected in human HuH7 replicon cells to EC50 for HCV genotype 1b Con1 harboring wild type NS3 infected in human HuH7 replicon cells; assay type: functional, Hepacivirus hominis, isolate Con1
Hepatitis C virus [13] = test: Resistance index, ratio of EC50 for HCV genotype 1b Con1 harboring NS3 D168V mutant infected in human HuH7 replicon cells to EC50 for HCV genotype 1b Con1 harboring wild type NS3 infected in human HuH7 replicon cells; assay type: functional, Hepacivirus hominis, isolate Con1
[14] = Half life in iv dosed rat by LC-MS/MS analysis; assay type: ADME, organism-based; settings: in vivo
[15] = Plasma clearance in iv dosed rat by LC-MS/MS analysis; assay type: ADME, organism-based
[16] = Half life in po dosed rat by LC-MS/MS analysis; assay type: ADME, organism-based; settings: in vivo
Rattus norvegicus = test: Dose normalized AUC in po dosed rat after 24 hrs by LC-MS/MS analysis; assay type: ADME, organism-based; settings: in vivo
[17] = Oral bioavailability in rat by LC-MS/MS analysis; assay type: ADME, organism-based; settings: in vivo
[18] = Half life in dog at 1 mg/kg, iv by LC-MS/MS analysis; assay type: ADME, organism-based, Canis lupus familiaris; settings: in vivo
[19] = Plasma clearance in dog at 1 mg/kg, iv by LC-MS/MS analysis; assay type: ADME, organism-based, Canis lupus familiaris
[20] = Half life in dog at 3 mg/kg, po by LC-MS/MS analysis; assay type: ADME, organism-based, Canis lupus familiaris; settings: in vivo
Canis familiaris [21] = test: Dose normalized AUC in dog at 3 mg/kg, po after 24 hrs by LC-MS/MS analysis; assay type: ADME, organism-based, Canis lupus familiaris; settings: in vivo
Canis familiaris [22] = test: Fraction of drug absorbed into portal vein in dog at 3 mg/kg, po by LC-MS/MS analysis; assay type: ADME, organism-based, Canis lupus familiaris; settings: in vivo
Hepatitis C virus [23] = test: Ratio of EC50 in presence of 40% human plasma to EC50 in absence of human plasma for HCV genotype 1a H77 infected in human HuH7 replicon cells; assay type: functional, Hepacivirus hominis
[24] = Solubility in pH 7.2 buffer; assay type: physicochemical
[25] = Apparent permeability of the compound by PAMPA; assay type: ADME
[26] = Ratio of EC50 for HCV genotype 3a infected in human HuH7 replicon cells to EC50 for HCV genotype 1a H77 infected in human HuH7 replicon cells; assay type: functional
[27] = Oral bioavailability in dog at 3 mg/kg by LC-MS/MS analysis; assay type: ADME, organism-based, Canis lupus familiaris; settings: in vivo

## Cc1cc(C(=O)N[C@H]2CCCCC/C=C\[C@@H]3C[C@@]3(C(=O)NS(=O)(=O)C3(C)CC3)NC(=O)[C@@H]3C[C@@H](Oc4nc5cc(F)ccc5nc4C(F)(F)F)CN3C2=O)no1
Hepatitis C virus [1]
  pEC50: 9.15
Hepatitis C virus [2]
  pEC50: 8.05
Hepatitis C virus [3]
  pEC50: 9.30
Hepatitis C virus [4]
  pEC50: 7.96
Hepatitis C virus [5]
  pEC50: 6.91
Hepatitis C virus [6]
  pEC50: 9.52
Hepatitis C virus [7]
  pEC50: 7.85
Hepatitis C virus [8]
  pEC50: 9.40
Hepatitis C virus [9]
  pEC50: 8.89
Hepatitis C virus [10]
  Ratio EC50: 3
Hepatitis C virus [11]
  Ratio EC50: 127
Hepatitis C virus [12]
  Ratio EC50: 1
Hepatitis C virus [13]
  Ratio EC50: 4
[14]
  half-life: 4.1 h
[15]
  clearance: 1.6 L/h/kg
[16]
  half-life: 4.7 h
Rattus norvegicus
  AUC/dose: 0.19 µg·h/mL
[17]
  bioavailability: 27%
[18]
  half-life: 2.9 h
[19]
  clearance: 0.02 L/h/kg
[20]
  half-life: 2.9 h
Canis familiaris [21]
  AUC/dose: 46.8 µg·h/mL
Canis familiaris [22]
  FaFg: 0.9
Hepatitis C virus [23]
  Ratio EC50: 6 - 35
[24]
  Solubility: 20.6 µM (≈ 16.6 µg/mL)
[25]
  Papp: 121 nm/s

## Cc1cc(C(=O)N[C@H]2CCCCC/C=C\[C@@H]3C[C@@]3(C(=O)NS(=O)(=O)C3CC3)NC(=O)[C@@H]3C[C@@H](Oc4nc5cc(F)ccc5nc4C(F)(F)F)CN3C2=O)no1
[26]
  Ratio EC50: >80
Hepatitis C virus [1]
  pEC50: 9.10
Hepatitis C virus [2]
  pEC50: 8.15
Hepatitis C virus [3]
  pEC50: 9.30
Hepatitis C virus [4]
  pEC50: 8.15
Hepatitis C virus [5]
  pEC50: 7.08 to 7.19
Hepatitis C virus [6]
  pEC50: 9.52
Hepatitis C virus [7]
  pEC50: 7.85
Hepatitis C virus [9]
  pEC50: 8.82
Hepatitis C virus [10]
  Ratio EC50: 3
Hepatitis C virus [11]
  Ratio EC50: 149
Hepatitis C virus [12]
  Ratio EC50: 1
Hepatitis C virus [13]
  Ratio EC50: 5
[14]
  half-life: 2.1 h
[15]
  clearance: 2.3 L/h/kg
[16]
  half-life: 1.9 h
Rattus norvegicus
  AUC/dose: 0.14 µg·h/mL
[17]
  bioavailability: 28%
[18]
  half-life: 3.5 h
[19]
  clearance: 0.04 L/h/kg
[20]
  half-life: 2.2 h
Canis familiaris [21]
  AUC/dose: 18 µg·h/mL
Canis familiaris [22]
  FaFg: 0.8
Hepatitis C virus [23]
  Ratio EC50: 6 - 35
[24]
  Solubility: 155 µM (≈ 123 µg/mL)
[25]
  Papp: 51 nm/s

## Cn1ccc(C(=O)N[C@H]2CCCCC/C=C\[C@@H]3C[C@@]3(C(=O)NS(=O)(=O)C3(C)CC3)NC(=O)[C@@H]3C[C@@H](Oc4nc5cc(OC(F)(F)F)ccc5c5ccc(F)cc45)CN3C2=O)n1
[26]
  Ratio EC50: <=10
Hepatitis C virus [1]
  pEC50: 9.70
Hepatitis C virus [2]
  pEC50: 8.15
Hepatitis C virus [3]
  pEC50: 10.00
Hepatitis C virus [4]
  pEC50: 8.52
Hepatitis C virus [5]
  pEC50: 9.10 to 9.52
Hepatitis C virus [6]
  pEC50: 8.70
Hepatitis C virus [7]
  pEC50: 8.52
Hepatitis C virus [8]
  pEC50: 10.52
Hepatitis C virus [10]
  Ratio EC50: 65
Hepatitis C virus [11]
  Ratio EC50: 97
Hepatitis C virus [12]
  Ratio EC50: 0.5
Hepatitis C virus [13]
  Ratio EC50: 2
[14]
  half-life: 5 h
[15]
  clearance: 1.1 L/h/kg
[16]
  half-life: 4.6 h
Rattus norvegicus
  AUC/dose: 0.4 µg·h/mL
[17]
  bioavailability: 43%
[18]
  half-life: 3.2 h
[19]
  clearance: 0.01 L/h/kg
[20]
  half-life: 4 h
Canis familiaris [21]
  AUC/dose: 138 µg·h/mL
[27]
  bioavailability: 81%
Canis familiaris [22]
  FaFg: 0.8
Hepatitis C virus [23]
  Ratio EC50: >30
[24]
  Solubility: 0.65 µM (≈ 0.565 µg/mL)
[25]
  Papp: 0.6 nm/s

## CC(=O)N(C)[C@@H](CC(C)(C)C)C(=O)N[C@H]1CCCCC/C=C\[C@@H]2C[C@@]2(C(=O)NS(=O)(=O)C2(C)CC2)NC(=O)[C@@H]2C[C@@H](Oc3nc4cc(F)ccc4c4ccccc34)CN2C1=O
Hepatitis C virus [1]
  pEC50: 9.30
Hepatitis C virus [2]
  pEC50: 8.15
Hepatitis C virus [3]
  pEC50: 8.70
Hepatitis C virus [4]
  pEC50: 7.92
Hepatitis C virus [5]
  pEC50: 8.10 to 8.40
Hepatitis C virus [6]
  pEC50: 9.22
Hepatitis C virus [7]
  pEC50: 9.40
Hepatitis C virus [8]
  pEC50: 8.10
Hepatitis C virus [9]
  pEC50: 8.52
Hepatitis C virus [10]
  Ratio EC50: 0.8
Hepatitis C virus [11]
  Ratio EC50: 2
Hepatitis C virus [12]
  Ratio EC50: 33
Hepatitis C virus [13]
  Ratio EC50: 11
[14]
  half-life: 1.7 h
[15]
  clearance: 3.1 L/h/kg
[16]
  half-life: 1.5 h
Rattus norvegicus
  AUC/dose: 0.09 µg·h/mL
[17]
  bioavailability: 27%
[18]
  half-life: 2.2 h
[19]
  clearance: 0.07 L/h/kg
[20]
  half-life: 2.1 h
Canis familiaris [21]
  AUC/dose: 11.6 µg·h/mL
[27]
  bioavailability: 76%
Canis familiaris [22]
  FaFg: 0.8
Hepatitis C virus [23]
  Ratio EC50: 6 - 35
[24]
  Solubility: 2.2 µM (≈ 1.89 µg/mL)
[25]
  Papp: 2.8 nm/s

## Cc1cc(C(=O)N[C@H]2CCCCC/C=C\[C@@H]3C[C@@]3(C(=O)NS(=O)(=O)C3(C)CC3)NC(=O)[C@@H]3C[C@@H](Oc4nc5ccccc5c5ccc(F)cc45)CN3C2=O)no1
Hepatitis C virus [1]
  pEC50: 9.15
Hepatitis C virus [2]
  pEC50: 8.22
Hepatitis C virus [3]
  pEC50: 9.30
Hepatitis C virus [4]
  pEC50: 8.10
Hepatitis C virus [5]
  pEC50: 8.15 to 8.40
Hepatitis C virus [7]
  pEC50: 8.10
Hepatitis C virus [8]
  pEC50: 9.40
Hepatitis C virus [9]
  pEC50: 9.05
Hepatitis C virus [10]
  Ratio EC50: 18
Hepatitis C virus [11]
  Ratio EC50: 168
Hepatitis C virus [12]
  Ratio EC50: 4
Hepatitis C virus [13]
  Ratio EC50: 9
[14]
  half-life: 3.2 h
[15]
  clearance: 2.5 L/h/kg
[16]
  half-life: 3.5 h
Rattus norvegicus
  AUC/dose: 0.16 µg·h/mL
[17]
  bioavailability: 40%
[18]
  half-life: 2.3 h
[19]
  clearance: 0.02 L/h/kg
[20]
  half-life: 2 h
Canis familiaris [21]
  AUC/dose: 85 µg·h/mL
[27]
  bioavailability: 140%
Canis familiaris [22]
  FaFg: 1.4
Hepatitis C virus [23]
  Ratio EC50: 6 - 35
[24]
  Solubility: 1.9 µM (≈ 1.5 µg/mL)
[25]
  Papp: 1.9 nm/s
